Measurements taken from patent publication US12473295B2, “Substituted straight chain spiro derivatives” (Janssen Pharmaceutica NV, priority 2019, dated 2025).
Counter-ions that a name gives are not always drawn.

Experiments:
[1] = biological target: menin/MLL (terbium chelate-labeled menin, FITC-MBM1 peptide) (Homo sapiens (Human), UniProt O00255); experiment: Menin/MLL homogenous time-resolved fluorescence (HTRF) assay; assay type: binding; settings: HTRF-30 min incubation IC50, 30 min incubation;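 further: IC50 from percent inhibition of HTRF signal, normalized between wells without competitor and wells with a saturating competitor that displaces FITC-MBM1 from His-tagged menin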
Chain of menin/MLL (terbium chelate-labeled menin, FITC-MBM1 peptide) (O00255 other isoform, or with tags, fused parts or gaps): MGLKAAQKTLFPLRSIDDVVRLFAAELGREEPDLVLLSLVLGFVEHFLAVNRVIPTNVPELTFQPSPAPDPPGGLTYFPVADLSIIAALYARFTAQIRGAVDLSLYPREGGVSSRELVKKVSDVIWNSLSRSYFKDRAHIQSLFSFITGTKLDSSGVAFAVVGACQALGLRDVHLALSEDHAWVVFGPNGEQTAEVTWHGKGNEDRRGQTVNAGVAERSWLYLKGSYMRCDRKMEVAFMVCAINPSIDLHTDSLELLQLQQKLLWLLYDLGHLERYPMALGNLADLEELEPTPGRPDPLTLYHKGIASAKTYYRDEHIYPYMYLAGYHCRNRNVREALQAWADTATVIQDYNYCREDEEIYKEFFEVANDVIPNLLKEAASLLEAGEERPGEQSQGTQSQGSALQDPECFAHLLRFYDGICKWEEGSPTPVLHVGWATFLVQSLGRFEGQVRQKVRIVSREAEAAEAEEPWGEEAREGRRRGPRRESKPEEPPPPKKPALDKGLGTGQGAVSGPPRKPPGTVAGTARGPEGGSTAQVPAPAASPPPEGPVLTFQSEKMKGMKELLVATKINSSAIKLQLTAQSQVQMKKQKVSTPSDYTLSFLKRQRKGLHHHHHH

[2] = system: MOLM14 cells; experiment: Proliferation assay (spheroid growth, 8 days), MOLM14; assay type: cell-based, human; settings: Homo sapiens, MOLM-14, […], MOLM14, 8 days; read-out: spheroid assay_OneTime MOLM14 IC50;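 further: spheroid size read as confluence by live-cell imaging, compounds added at a range of concentrations with 0.3% DMSO, DMSO-treated wells = 0%, highest reference dose = low control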
[3] = system: OCI-AML3 cells; experiment: Proliferation assay (spheroid growth, 8 days), OCI-AML3; assay type: cell-based, human; settings: Homo sapiens, OCI-AML-3, […], OCI-AML3, 8 days
Summary of the method: (§1)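 8-day spheroid growth in ultra-low attachment plates; seeding 200 cells (MOLM14, OCI-AML3) or 300 (KO-52); DMSO 0.3%. Day-8 imaging, confluence vs DMSO (0%) and top reference dose (baseline); IC50 by variable-slope fit.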

[4] = system: KO-52 cells; experiment: Proliferation assay (spheroid growth, 8 days), KO-52 control cell line; assay type: cell-based, human; settings: Homo sapiens, […], read-out: spheroid assay_OneTime KO-52 IC50
Summary of the method: as §1

[5] = system: MEIS1 mRNA; experiment: MEIS1 mRNA expression assay (Quantigene Singleplex) in MOLM14 cells; assay type: cell-based, human; settings: Homo sapiens, MOLM-14, 48 h, 48 hours incubation;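 further: MEIS1 transcript levels read by probe hybridization and normalized to RPL28 mRNA, with IC50 fitted to fold changes across a rising compound concentration series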
[6] = biological target: hERG (Homo sapiens (Human), UniProt Q12809); experiment: Effect on membrane potassium current IKr in hERG-transfected HEK293 cells, Protocol 2 (SyncroPatch 384PE); assay type: cell-based; settings: Protocol 2, hERG-transfected HEK293 cells
Chain of hERG (Q12809 whole entry): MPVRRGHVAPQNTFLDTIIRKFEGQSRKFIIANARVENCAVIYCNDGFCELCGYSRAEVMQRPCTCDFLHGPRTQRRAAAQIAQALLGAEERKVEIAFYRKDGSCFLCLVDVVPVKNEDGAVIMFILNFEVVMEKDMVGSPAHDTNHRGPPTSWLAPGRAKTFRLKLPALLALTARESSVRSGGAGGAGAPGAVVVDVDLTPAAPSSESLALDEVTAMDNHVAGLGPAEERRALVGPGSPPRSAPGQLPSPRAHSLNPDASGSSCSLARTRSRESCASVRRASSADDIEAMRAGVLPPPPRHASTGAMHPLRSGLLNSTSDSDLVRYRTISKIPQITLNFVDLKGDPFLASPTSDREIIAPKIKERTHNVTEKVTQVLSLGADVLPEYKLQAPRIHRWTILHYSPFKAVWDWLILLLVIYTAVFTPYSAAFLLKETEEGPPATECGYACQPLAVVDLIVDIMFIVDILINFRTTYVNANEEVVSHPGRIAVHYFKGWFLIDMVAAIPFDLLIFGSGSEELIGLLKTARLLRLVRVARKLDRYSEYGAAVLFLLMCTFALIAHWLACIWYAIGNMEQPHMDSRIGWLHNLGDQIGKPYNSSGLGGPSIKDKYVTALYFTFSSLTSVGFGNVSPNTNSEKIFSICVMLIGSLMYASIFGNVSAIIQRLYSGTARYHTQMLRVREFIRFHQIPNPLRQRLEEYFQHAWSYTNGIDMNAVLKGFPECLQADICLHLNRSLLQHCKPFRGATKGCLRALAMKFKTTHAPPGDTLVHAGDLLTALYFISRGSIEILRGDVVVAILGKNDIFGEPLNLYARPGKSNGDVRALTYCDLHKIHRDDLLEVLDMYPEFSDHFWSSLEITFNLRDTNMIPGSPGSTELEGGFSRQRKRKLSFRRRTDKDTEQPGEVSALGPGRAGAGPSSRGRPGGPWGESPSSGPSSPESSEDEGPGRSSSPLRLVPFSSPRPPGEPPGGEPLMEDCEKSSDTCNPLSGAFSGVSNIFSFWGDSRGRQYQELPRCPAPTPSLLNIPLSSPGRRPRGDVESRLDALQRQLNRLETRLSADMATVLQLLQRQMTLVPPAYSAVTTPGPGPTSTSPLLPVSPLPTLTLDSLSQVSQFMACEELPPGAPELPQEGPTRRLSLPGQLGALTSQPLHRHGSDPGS
Procedure: 8) Effect on the Membrane Potassium Current IKr in hERG Transfected Cell Lines
The compound, vehicle control and positive control were tested on hERG-transfected HEK293 cells. A human embryonic kidney cell line (HEK293) with a stable transfection of hERG (Zhou Z et al. Biophysical Journal 1998. 74, 230-241; McDonald T. V. et al, Nature 1997. 388, 289-292) was used (University of Wisconsin, Madison, USA). The cells were kept in culture in MEM (Minimum Essential Medium, Gibco) which was supplemented with (amounts indicated added to 500 ml MEM): 5 ml L-Glutamine-Penicillin-Streptomycin (Sigma), 50 ml Fetal Bovine serum (Bio-Whittaker), 5 ml Non-essential Amino Acids 100× (Gibco), 5 ml sodium pyruvate 100 mM (Gibco) and 4 ml geneticin 50 mg/ml (Gibco) using T175 flasks. The cells were incubated at 37° C. in 5% CO2 atmosphere (in air).
Cell Harvesting for Assay
Cells were harvested as described below using Accumax™ (Sigma) as the dissociating reagent. Cells were then resuspended in a mixture of 33% DMEM/F12 (Dulbecco's Modified Eagle Medium/Nutrient Mixture F-12—Sigma) media/67% extracellular physiological solution.
The flasks were washed twice carefully with ˜5-10 ml phosphate buffered saline (PBS) (Gibco™) containing 2 mM EDTA (Ethylenediaminetetraacetic acid) (Sigma). The cells were dissociated using ˜3 ml of Accumax™ (cell detachment solution) and incubated for ˜5 to 10 min. at 37° C. Cold external physiological solution (2-5 ml) was added and the flasks are incubated at ˜4° C. for 5-10 min. Then, the cell suspension in each flask was gently dissociated with a 5 ml pipette. The cell suspension was transferred to a low binding petri-dish (˜[…]). Each flask was washed with ˜additional 5 ml cold external physiological solution and this solution was also added to the petri-dish. The petri-dish was then incubated for another 5 to 10 minutes at ˜4° C. After another gentle dissociation of the cell suspension in the petri dish, the cells were transferred to a reservoir kept on an orbital shaker at 200 rpm at 16° C. Before experiments were performed, the cells recovered for ˜20 min.
A 10 mM solution of the compound was used and plated in a 384 well plate. Aliquots of the stock solutions are diluted with the recording solution (see section 3) using automated liquid handling (Biomek FXP; final DMSO concentration: 0.03 to 0.3%). A standard range of screening concentrations was used ranging from 1 μM to 30 μM.
A positive control (E-4031) was included within each run to evaluate the sensitivity of the assay.
External and Intracellular Solutions Used in the Experiments
In the table below the composition of the intracellular and external buffer solutions is shown in [mM] (“NMDG” means N-methyl-D-glucamine)
The whole cell patch clamp technique on transfected cells allows the study of ion-channels with no—or limited interference from other ion-channels. The effects of the compounds on the hERG current were studied with an automated planar patch clamp system, SyncroPatch 384PE (Obergrussberger et al, Journal of Laboratory Automation 2016. 21 (6). 779-793). All cells were recorded in the whole cell mode of the patch clamp technique. The module is incorporated in a liquid handling pipetting robot system, Biomek FXP, for application of cells and compounds, vehicle control and positive control.
The different concentrations of the compounds were applied in two cumulatively increasing concentrations for the compounds (1 μM and 10 μM, and 3 μM and 30 μM, respectively). The hERG current was determined as the maximal tail current at −30 mV and percent inhibition upon compound or vehicle and positive control addition was reported.
After cells are caught onto the individual holes of the recording chips using the chip fill solution, the seal is increased with the seal enhancer solution (increased [Ca^2+]; then the cells were washed twice with recording solution before using a pressure protocol to go into the whole cell mode. […]

Row | Structure (SMILES) | IC50 [1] [nM] | IC50 [2] [nM] | IC50 [3] [nM] | IC50 [5] [nM] | IC50 [4] [nM] | IC50 [6] [nM]
1 | CCN(C)CCC[C@H](C(C)C)N1CC2(CCN(c3ncnnc3Oc3ccc(F)cc3C(=O)N(CC)C(C)C)C2)C1 (single isomer, unassigned) [Compound 132, (*R)—N-ethyl-2-((5-(2-(6-(ethyl(methyl)amino)-2-methylhexan-3-yl)-2,6-diazaspiro[3.4]octan-6-yl)-1,2,4-triazin-6-yl)oxy)-5-fluoro-N-isopropylbenzamide fumarate] | 0.11 | 33 | 190 | 15 | 10400 | > 30200
2 | CC(C)[C@H](CCCN(C)CCC(=O)N(C)C)N1CC2(CCN(c3ncnnc3Oc3ccc(F)cc3C(=O)N(C(C)C)C(C)C)C2)C1 (single isomer, unassigned) [Compound 146, (*S)-2-((5-(2-(6-((3-(dimethylamino)-3-oxopropyl)(methyl)amino)-2-methylhexan-3-yl)-2,6-diazaspiro[3.4]octan-6-yl)-1,2,4-triazin-6-yl)oxy)-5-fluoro-N,N-diisopropylbenzamide fumarate] | 0.081 | 320 | 1790 | 440 | > 15000 | > 30200
3 | CCN(C(=O)c1cc(F)ccc1Oc1nncnc1N1CCC2(C1)CN([C@H](CCCN(C)CCN(C)C(C)=O)C(C)C)C2)C(C)C [Compound 148, (R)-N-ethyl-5-fluoro-N-isopropyl-2-((5-(2-(2-methyl-6-(methyl(2-(N-methylacetamido)ethyl)amino)hexan-3-yl)-2,6-diazaspiro[3.4]octan-6-yl)-1,2,4-triazin-6-yl)oxy)benzamide fumarate] | 0.35 | 41 | 340 | 60 | > 15000 | 12300

The next lines start with results.

Row | IC50 [1] [nM] | IC50 [2] [nM] | IC50 [3] [nM] | IC50 [5] [nM] | Structure (SMILES) | IC50 [4] [nM] | IC50 [6] [nM]
4 | 0.4 | 180 | 990 | 200 | CCN(C(=O)c1cc(F)ccc1Oc1nncnc1N1CCC2(C1)CN([C@H](CCN(C)C)C(C)C)C2)C(C)C (single isomer, unassigned) [Compound 223, (*R)-2-((5-(2-(1-(dimethylamino)-4-methylpentan-3-yl)-2,6-diazaspiro[3.4]octan-6-yl)-1,2,4-triazin-6-yl)oxy)-N-ethyl-5-fluoro-N-isopropylbenzamide fumarate] | > 15000 | > 30200
5 | 0.15 | 46 | 130 | 76 | CCN(C(=O)c1cc(F)ccc1Oc1nncnc1N1CCC2(C1)CN([C@H](CCNCCOC)C(C)C)C2)C(C)C (single isomer, unassigned) [Compound 227, (*R)—N-ethyl-5-fluoro-N-isopropyl-2-((5(2-(1-((2-methoxyethyl)amino)-4-methylpentan-3-yl)-2,6-diazaspiro[3.4]octan-6-yl)-1,2,4-triazin-6-yl)oxy)benzamide fumarate] | > 15000 | > 30200
6 | 0.26 | 170 | 1070 | 230 | CCN(C(=O)c1cc(F)ccc1Oc1nncnc1N1CCC2(C1)CN([C@H](C[C@H](C)CN(C)CCOC)C(C)C)C2)C(C)C (single isomer, unassigned) [Compound 242] | > 15000 | > 30200
7 |  | 26 | 150 |  | O=C(O)/C=C/C(=O)O.[2H]C([2H])(COC)N(C)CCC[C@H](C(C)C)N1CC2(CCN(c3ncnnc3Oc3ccc(F)cc3C(=O)N(CC)C(C)C)C2)C1 [Compound 233, (R)-N-ethyl-5-fluoro-N-isopropyl-2-((5-(2-(6-((2-methoxyethyl-1,1-d2)(methyl)amino)-2-methylhexan-3-yl)-2,6-diazaspiro[3.4]octan-6-yl)-1,2,4-triazin-6-yl)oxy)benzamide fumarate] | 5030 | > 30200
